Experimental findings from patent EP0352817A2, “Monoclonal antibody to catecholamine metabolite and quantitative assay for catecholamine metabolite” (ORIENTAL YEAST CO., LTD., priority 1988, dated 1990) are described below.

Structures are written as SMILES.

This assay relates to monoclonal antibody specific against catecholamine metabolites containing 3-methoxy, 4-hydroxy group therein. Description: standard curves for fractionation and determination of ℓ-VMA and HVA in competitive EIA. Conditions: pH 8.0, amount of less than 1 µM. It counts as binding, BALB/c mice. The text has this:
Then, VMA-SBA adsorbed onto the solid phase by the action other than the covalent bond was washed with 0.1 N acetic acid containing 0.1% (w/v) SDS.

On to `COc1cc(C(O)C(=O)O)ccc1O` (single isomer, unassigned) [ℓ-VMA], for which the “reaction in competitive EIA” value is given as “did not react”.

For the molecule `COc1cc(C(O)C(=O)O)ccc1O` (centres unmarked) [Vanillylmandelic acid], the “reaction in competitive EIA” value was “reacted only”.
